Source: patent US20110166191A1, “3-(2-amino-ethyl)-5-(3-cyclohexyl-propylidene)-thiazolidine-2,4-dione and its derivatives as multiple signaling pathway inhibitors and for the treatment of cancer” (priority 2010, published 2011)

Legend:
ABL = molecular target: T1, ABL (Homo sapiens, UniProt P00519); assay: In vitro kinase screening; assay type: biochemical; settings: 10 μM concentration
T1 construct: Caliper Life Sciences (screening service)
Description: (§1) Formula II [3-(2-aminoethyl)-5-(3-cyclohexylpropylidene)thiazolidine-2,4-dione] was screened against a panel of kinases at 10 μM concentration by Caliper Life Sciences according to their established protocol.

AKT2 = molecular target: T2, AKT2 (Homo sapiens, UniProt P31751); assay: In vitro kinase screening; assay type: biochemical; settings: AKT2, 10 μM concentration
T2 construct: Caliper Life Sciences (screening service)
Description: as §1

AMPK = assay: In vitro kinase screening; assay type: biochemical; settings: 10 μM concentration
Description: as §1

CAMK2 = assay: In vitro kinase screening; assay type: biochemical; settings: CAMK2, 10 μM concentration
Description: as §1

CAMk4 = molecular target: T3, CAMk4 (Homo sapiens, UniProt Q16566); assay: In vitro kinase screening; assay type: biochemical; settings: CAMk4, 10 μM concentration
T3 construct: Caliper Life Sciences (screening service)
T3 sequence (Q16566 whole entry): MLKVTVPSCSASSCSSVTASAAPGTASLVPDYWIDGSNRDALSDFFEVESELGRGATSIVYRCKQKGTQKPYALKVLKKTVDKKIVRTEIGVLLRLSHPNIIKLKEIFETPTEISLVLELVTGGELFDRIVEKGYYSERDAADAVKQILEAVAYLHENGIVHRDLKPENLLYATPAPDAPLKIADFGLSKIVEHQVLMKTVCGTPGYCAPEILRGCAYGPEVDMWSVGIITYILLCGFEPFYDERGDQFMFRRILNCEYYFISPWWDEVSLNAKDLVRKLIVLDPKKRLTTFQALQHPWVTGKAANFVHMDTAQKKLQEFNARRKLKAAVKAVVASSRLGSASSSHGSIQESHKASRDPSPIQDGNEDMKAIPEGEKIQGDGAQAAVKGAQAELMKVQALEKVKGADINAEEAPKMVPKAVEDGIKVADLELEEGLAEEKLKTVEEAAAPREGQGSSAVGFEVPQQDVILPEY
Description: as §1

CDK2 = molecular target: T4, CDK2 (Homo sapiens, UniProt P24941); assay: In vitro kinase screening; assay type: biochemical; settings: CDK2, 10 μM concentration
T4 construct: Caliper Life Sciences (screening service)
Description: as §1

CHK2 = molecular target: T5, CHK2 (Homo sapiens, UniProt O96017); assay: In vitro kinase screening; assay type: biochemical; settings: CHK2, 10 μM concentration
T5 construct: Caliper Life Sciences (screening service)
Description: as §1

Ck1d = molecular target: T6, Ck1d (Homo sapiens, UniProt P48730); assay: In vitro kinase screening; assay type: biochemical; settings: 10 μM concentration
T6 construct: Caliper Life Sciences (screening service)
T6 sequence (P48730 whole entry): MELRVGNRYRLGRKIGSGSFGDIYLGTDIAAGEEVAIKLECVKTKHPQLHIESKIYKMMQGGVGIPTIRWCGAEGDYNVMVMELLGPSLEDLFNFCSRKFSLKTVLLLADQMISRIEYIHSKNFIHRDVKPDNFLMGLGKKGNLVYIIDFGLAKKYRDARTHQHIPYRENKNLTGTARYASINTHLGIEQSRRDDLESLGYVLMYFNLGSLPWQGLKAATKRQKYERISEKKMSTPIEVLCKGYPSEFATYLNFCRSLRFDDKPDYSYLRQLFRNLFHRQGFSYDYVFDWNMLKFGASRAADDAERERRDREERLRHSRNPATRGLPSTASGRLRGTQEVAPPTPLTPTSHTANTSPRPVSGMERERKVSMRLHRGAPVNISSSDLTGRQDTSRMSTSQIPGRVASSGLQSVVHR
Description: as §1

Erk2 = molecular target: T7, Erk2 (Homo sapiens, UniProt P28482); assay: In vitro kinase screening; assay type: biochemical; settings: Erk2, 10 μM concentration
T7 construct: Caliper Life Sciences (screening service)
T7 sequence (P28482 whole entry): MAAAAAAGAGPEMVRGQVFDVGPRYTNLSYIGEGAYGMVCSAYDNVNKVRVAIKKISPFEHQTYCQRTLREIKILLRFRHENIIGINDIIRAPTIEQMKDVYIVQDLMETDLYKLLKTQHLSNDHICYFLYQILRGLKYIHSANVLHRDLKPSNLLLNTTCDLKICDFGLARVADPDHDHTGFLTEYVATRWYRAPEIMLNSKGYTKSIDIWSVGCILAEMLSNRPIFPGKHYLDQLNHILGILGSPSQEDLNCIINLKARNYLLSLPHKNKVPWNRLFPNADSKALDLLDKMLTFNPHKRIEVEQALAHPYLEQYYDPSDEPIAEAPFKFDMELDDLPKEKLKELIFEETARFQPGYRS
Description: as §1

FGFR1 = molecular target: T8, FGFR1 (Homo sapiens, UniProt P11362); assay: In vitro kinase screening; assay type: biochemical; settings: FGFR1, 10 μM concentration
T8 construct: Caliper Life Sciences (screening service)
T8 sequence (P11362 22-822): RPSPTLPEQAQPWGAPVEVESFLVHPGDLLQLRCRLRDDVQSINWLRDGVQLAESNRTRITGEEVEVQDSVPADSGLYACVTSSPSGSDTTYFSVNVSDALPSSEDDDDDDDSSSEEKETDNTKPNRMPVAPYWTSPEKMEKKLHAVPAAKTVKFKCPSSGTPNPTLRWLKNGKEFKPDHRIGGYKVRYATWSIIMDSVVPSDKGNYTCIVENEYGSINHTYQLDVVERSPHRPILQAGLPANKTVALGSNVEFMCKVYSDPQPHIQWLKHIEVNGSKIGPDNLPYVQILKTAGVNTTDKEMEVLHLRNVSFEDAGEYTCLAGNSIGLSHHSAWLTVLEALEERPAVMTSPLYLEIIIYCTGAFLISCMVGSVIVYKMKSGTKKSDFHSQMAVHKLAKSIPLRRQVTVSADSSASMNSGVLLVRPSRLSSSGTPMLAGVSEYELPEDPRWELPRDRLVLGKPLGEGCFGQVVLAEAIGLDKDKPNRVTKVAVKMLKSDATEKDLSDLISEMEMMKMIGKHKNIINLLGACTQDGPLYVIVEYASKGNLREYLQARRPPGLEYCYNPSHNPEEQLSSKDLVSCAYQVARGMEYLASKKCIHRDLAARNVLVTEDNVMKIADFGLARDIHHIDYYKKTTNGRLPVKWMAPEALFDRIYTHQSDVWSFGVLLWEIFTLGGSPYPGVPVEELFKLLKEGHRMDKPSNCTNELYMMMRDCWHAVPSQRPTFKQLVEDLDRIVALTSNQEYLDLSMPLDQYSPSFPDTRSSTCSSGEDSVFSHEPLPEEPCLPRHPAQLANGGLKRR
Description: as §1

FYN = molecular target: T9, FYN (Homo sapiens, UniProt P06241); assay: In vitro kinase screening; assay type: biochemical; settings: 10 μM concentration
T9 construct: Caliper Life Sciences (screening service)
T9 sequence (P06241 whole entry): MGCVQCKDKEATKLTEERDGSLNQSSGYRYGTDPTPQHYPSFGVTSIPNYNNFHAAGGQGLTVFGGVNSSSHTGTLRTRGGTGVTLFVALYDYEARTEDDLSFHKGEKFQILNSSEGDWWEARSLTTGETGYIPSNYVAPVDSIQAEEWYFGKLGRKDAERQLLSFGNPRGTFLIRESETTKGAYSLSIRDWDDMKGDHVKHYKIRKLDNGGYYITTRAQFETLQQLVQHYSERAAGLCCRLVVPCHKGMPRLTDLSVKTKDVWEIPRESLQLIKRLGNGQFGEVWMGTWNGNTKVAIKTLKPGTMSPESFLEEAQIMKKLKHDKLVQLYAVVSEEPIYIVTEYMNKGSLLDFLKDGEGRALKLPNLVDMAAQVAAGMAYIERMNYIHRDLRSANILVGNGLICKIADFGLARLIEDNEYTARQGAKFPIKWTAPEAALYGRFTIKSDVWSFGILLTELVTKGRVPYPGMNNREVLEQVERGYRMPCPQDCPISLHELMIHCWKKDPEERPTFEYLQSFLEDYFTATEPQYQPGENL
Description: as §1

GSK3b = molecular target: T10, GSK3b (Homo sapiens, UniProt P49841); assay: In vitro kinase screening; assay type: biochemical; settings: 10 μM concentration
T10 construct: Caliper Life Sciences (screening service)
T10 sequence (P49841 whole entry): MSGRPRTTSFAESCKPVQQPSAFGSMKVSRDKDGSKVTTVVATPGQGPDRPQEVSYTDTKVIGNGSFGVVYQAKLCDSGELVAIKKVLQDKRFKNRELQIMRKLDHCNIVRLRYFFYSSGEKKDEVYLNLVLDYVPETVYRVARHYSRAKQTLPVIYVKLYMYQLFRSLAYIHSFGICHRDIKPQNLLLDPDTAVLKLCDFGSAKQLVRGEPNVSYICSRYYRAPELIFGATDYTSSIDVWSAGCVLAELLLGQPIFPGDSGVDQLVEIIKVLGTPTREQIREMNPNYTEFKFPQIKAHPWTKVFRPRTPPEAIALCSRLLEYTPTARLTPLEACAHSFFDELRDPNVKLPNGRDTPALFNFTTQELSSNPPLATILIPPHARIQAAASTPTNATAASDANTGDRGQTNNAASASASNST
Description: as §1

HGK = molecular target: T11, HGK (Homo sapiens, UniProt O95819); assay: In vitro kinase screening; assay type: biochemical; settings: 10 μM concentration
T11 construct: Caliper Life Sciences (screening service)
Description: as §1

IGF1R = molecular target: T12, IGF1R (Homo sapiens, UniProt P08069); assay: In vitro kinase screening; assay type: biochemical; settings: 10 μM concentration
T12 construct: Caliper Life Sciences (screening service)
Description: as §1

INSR = molecular target: T13, INSR (Homo sapiens, UniProt P06213); assay: In vitro kinase screening; assay type: biochemical; settings: 10 μM concentration
T13 construct: Caliper Life Sciences (screening service)
Description: as §1

IRAK4 = molecular target: T14, IRAK4 (Homo sapiens, UniProt Q9NWZ3); assay: In vitro kinase screening; assay type: biochemical; settings: IRAK4, 10 μM concentration
T14 construct: Caliper Life Sciences (screening service)
Description: as §1

KDR = molecular target: T15, KDR (Homo sapiens, UniProt P35968); assay: In vitro kinase screening; assay type: biochemical; settings: 10 μM concentration
T15 construct: Caliper Life Sciences
Description: as §1

MAPKAPK2 = molecular target: T16, MAPKAPK2 (Homo sapiens, UniProt P49137); assay: In vitro kinase screening; assay type: biochemical; settings: MAPKAPK2, 10 μM concentration
T16 construct: Caliper Life Sciences
Description: as §1

MEK2 = molecular target: T17, MEK2 (Homo sapiens, UniProt P36507); assay: In vitro kinase screening; assay type: biochemical; settings: MEK2, 10 μM concentration
T17 construct: Caliper Life Sciences
Description: as §1

MET = molecular target: T18, MET (Homo sapiens, UniProt P08581); assay: In vitro kinase screening; assay type: biochemical; settings: 10 μM concentration
T18 construct: Caliper Life Sciences
Description: as §1

PDK1 = molecular target: T19, PDK1 (Homo sapiens, UniProt O15530); assay: In vitro kinase screening; assay type: biochemical; settings: PDK1, 10 μM concentration
T19 construct: Caliper Life Sciences
Description: as §1

PI3Ka = molecular target: T20, PI3Ka (Homo sapiens, UniProt P42336); assay: In vitro kinase screening; assay type: biochemical; settings: 10 μM concentration
T20 construct: Caliper Life Sciences
Description: as §1

PKCb2 = molecular target: T21, PKCb2 (Homo sapiens, UniProt P05771); assay: In vitro kinase screening; assay type: biochemical; settings: PKCb2, 10 μM concentration
T21 construct: Caliper Life Sciences
Description: as §1

PKCz = molecular target: T22, PKCz (Homo sapiens, UniProt Q05513); assay: In vitro kinase screening; assay type: biochemical; settings: 10 μM concentration
T22 construct: Caliper Life Sciences
Description: as §1

PKGa = molecular target: T23, PKGa (Homo sapiens, UniProt Q13976); assay: In vitro kinase screening; assay type: biochemical; settings: 10 μM concentration
T23 construct: Caliper Life Sciences
T23 sequence (Q13976 whole entry): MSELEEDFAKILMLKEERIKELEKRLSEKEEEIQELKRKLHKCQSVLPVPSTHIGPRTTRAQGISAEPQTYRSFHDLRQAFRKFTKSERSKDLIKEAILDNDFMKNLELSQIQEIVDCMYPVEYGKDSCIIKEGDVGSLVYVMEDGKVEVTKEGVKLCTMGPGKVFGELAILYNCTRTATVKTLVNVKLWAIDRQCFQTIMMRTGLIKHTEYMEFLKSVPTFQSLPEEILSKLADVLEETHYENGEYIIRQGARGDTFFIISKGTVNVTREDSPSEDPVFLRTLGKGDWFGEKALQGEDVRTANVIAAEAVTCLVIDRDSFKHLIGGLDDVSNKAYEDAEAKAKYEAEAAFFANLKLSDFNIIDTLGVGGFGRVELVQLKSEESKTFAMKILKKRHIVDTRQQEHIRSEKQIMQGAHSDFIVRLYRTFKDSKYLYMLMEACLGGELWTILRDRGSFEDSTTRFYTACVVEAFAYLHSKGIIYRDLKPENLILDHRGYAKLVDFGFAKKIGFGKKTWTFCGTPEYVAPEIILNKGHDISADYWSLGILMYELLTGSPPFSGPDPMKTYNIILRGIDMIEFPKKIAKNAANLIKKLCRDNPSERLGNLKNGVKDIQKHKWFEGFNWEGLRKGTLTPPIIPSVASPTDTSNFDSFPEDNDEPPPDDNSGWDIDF
Description: as §1

ROCK2 = molecular target: T24, ROCK2 (Homo sapiens, UniProt O75116); assay: In vitro kinase screening; assay type: biochemical; settings: ROCK2, 10 μM concentration
T24 construct: Caliper Life Sciences
Description: as §1

RSK1 = molecular target: T25, RSK1 (Homo sapiens, UniProt Q15418); assay: In vitro kinase screening; assay type: biochemical; settings: RSK1, 10 μM concentration
T25 construct: Caliper Life Sciences
Description: as §1

SGK1 = molecular target: T26, SGK1 (Homo sapiens, UniProt O00141); assay: In vitro kinase screening; assay type: biochemical; settings: SGK1, 10 μM concentration
T26 construct: Caliper Life Sciences
Description: as §1

SRC = molecular target: T27, SRC (Homo sapiens, UniProt P12931); assay: In vitro kinase screening; assay type: biochemical; settings: 10 μM concentration
T27 construct: purchased Caliper Life Sciences
Description: as §1

c-TAK1 = molecular target: T28, c-TAK1 (Homo sapiens, UniProt P27448); assay: In vitro kinase screening; assay type: biochemical; settings: c-TAK1, 10 μM concentration
T28 construct: Caliper Life Sciences (screening service)
T28 sequence (P27448 whole entry): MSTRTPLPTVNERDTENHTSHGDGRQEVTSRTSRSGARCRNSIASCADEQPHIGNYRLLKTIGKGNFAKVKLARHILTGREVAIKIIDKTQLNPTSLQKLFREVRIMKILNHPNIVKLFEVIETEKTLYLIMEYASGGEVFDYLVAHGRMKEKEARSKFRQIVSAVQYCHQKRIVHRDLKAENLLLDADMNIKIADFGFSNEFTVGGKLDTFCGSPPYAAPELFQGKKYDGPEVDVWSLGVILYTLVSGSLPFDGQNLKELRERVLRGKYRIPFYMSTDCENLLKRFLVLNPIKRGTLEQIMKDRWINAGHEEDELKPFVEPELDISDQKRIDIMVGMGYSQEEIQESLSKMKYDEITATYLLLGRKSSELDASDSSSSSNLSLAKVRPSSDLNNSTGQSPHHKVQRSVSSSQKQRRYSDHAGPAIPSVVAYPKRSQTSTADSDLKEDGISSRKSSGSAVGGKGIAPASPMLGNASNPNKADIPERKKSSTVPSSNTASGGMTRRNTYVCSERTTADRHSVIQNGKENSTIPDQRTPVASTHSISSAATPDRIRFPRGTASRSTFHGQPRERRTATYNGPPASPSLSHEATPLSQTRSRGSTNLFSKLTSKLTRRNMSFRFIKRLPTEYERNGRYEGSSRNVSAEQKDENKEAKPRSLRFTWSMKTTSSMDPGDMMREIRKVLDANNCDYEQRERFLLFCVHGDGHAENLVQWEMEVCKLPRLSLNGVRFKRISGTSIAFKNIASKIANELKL
Description: as §1

p38a = molecular target: T29, p38a (Homo sapiens, UniProt Q16539); assay: In vitro kinase screening; assay type: biochemical; settings: 10 μM concentration
T29 construct: Caliper Life Sciences
Description: as §1

p70S6K = molecular target: T30, p70S6K (Homo sapiens, UniProt P23443); assay: In vitro kinase screening; assay type: biochemical; settings: 10 μM concentration
T30 construct: Caliper Life Sciences
T30 sequence (P23443 whole entry): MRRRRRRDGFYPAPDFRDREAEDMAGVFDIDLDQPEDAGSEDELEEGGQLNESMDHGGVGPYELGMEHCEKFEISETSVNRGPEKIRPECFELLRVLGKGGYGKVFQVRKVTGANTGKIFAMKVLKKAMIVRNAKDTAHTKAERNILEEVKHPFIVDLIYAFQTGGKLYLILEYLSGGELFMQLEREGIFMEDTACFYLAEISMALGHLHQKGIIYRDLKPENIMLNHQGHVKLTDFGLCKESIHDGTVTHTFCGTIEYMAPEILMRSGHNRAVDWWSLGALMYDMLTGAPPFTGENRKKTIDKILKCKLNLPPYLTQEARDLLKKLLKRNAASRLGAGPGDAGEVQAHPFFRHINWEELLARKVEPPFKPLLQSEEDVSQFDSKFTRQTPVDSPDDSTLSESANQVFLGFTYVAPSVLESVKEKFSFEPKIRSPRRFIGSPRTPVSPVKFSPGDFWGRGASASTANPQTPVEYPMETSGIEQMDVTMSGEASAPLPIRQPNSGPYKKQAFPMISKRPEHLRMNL
Description: as §1

B16F10 melanoma cells = assay: Reduction of murine B16F10 melanoma lung nodules in mice; assay type: in vivo, B6C3F1 mice; settings: 20 mg/kg daily gavage
Description: FIG. 5. […] Female B6C3F1 mice (10-11/group) were injected with 2×10^5 B16F10 melanoma cells (i.v.), and treatment with 20 mg/kg dose daily (gavage) was started one day before the tumor cell injection and stopped at day 15 after tumor injection. Mice were sacrificed at day 18 and lungs were removed for counting and observation.
Female B6C3F1 mice (10-11/group) were injected with 2×10^5 B16F10 melanoma cells (i.v.), and treatment with the compound produced as described in Example 4i.e. 3-(2-aminoethyl)-5-(3-cyclohexylpropylidene)thiazolidine-2,4-dione, 20 mg/kg dosage daily (gavage) was started one day before the tumor cell injection and stopped at day 15 after tumor injection. Mice were sacrificed at day 18 and lungs were removed for counting and observation.

SMILES: NCCN1C(=O)S/C(=C\CCC2CCCCC2)C1=O [Example 4, 3-(2-aminoethyl)-5-(3-cyclohexylpropylidene)thiazolidine-2,4-dione]
- inhibition at 10 µM (ABL): 6%
- inhibition at 10 µM (AKT2): 8%
- % Inhibition (AMPK): 76%
- % Inhibition (CAMK2): 60%
- inhibition at 10 µM (CAMk4): 71%
- inhibition at 10 µM (CDK2): -2%
- inhibition at 10 µM (CHK2): 8%
- inhibition at 10 µM (Ck1d): -5%
- inhibition at 10 µM (Erk2): 11%
- inhibition at 10 µM (FGFR1): 3%
- inhibition at 10 µM (FYN): 0%
- inhibition at 10 µM (GSK3b): 0%
- inhibition at 10 µM (HGK): -1%
- inhibition at 10 µM (IGF1R): -1%
- inhibition at 10 µM (INSR): -2%
- inhibition at 10 µM (IRAK4): -1%
- inhibition at 10 µM (KDR): -28%
- inhibition at 10 µM (MAPKAPK2): 3%
- inhibition at 10 µM (MEK2): 27%
- inhibition at 10 µM (MET): -1%
- inhibition at 10 µM (PDK1): -2%
- inhibition at 10 µM (PI3Ka): 45%
- inhibition at 10 µM (PKCb2): 16%
- inhibition at 10 µM (PKCz): -8%
- inhibition at 10 µM (PKGa): -2%
- inhibition at 10 µM (ROCK2): -1%
- inhibition at 10 µM (RSK1): 2%
- inhibition at 10 µM (SGK1): 14%
- inhibition at 10 µM (SRC): 2%
- inhibition at 10 µM (c-TAK1): 6%
- inhibition at 10 µM (p38a): -13%
- inhibition at 10 µM (p70S6K): 5%
- lung tumor nodules (B16F10 melanoma cells; B6C3F1 mice, B16F10 melanoma cells i.v., lungs at day 18): decreased the lung tumor nodules
- oral bioavailability (in words) (B16F10 melanoma cells; mice): orally bioavailable
